Columns and labels:
[1] = biological target: Nucleic Acid; assay: Intrinsic association constant for DNA; assay type: nucleic-acid assay, Bos taurus
[2] = system: Nucleic Acid; assay: Melting temperature (Tm) of DNA in the presence of compound (5 uM); assay type: functional; conditions: Bos taurus
[3] = biological target: Nucleic Acid; assay: Apparent association constant for DNA; assay type: nucleic-acid assay, Bos taurus
[4] = system: Nucleic Acid; assay: Melting temperature (Tm) of DNA in the absence of the compound; assay type: functional; conditions: Bos taurus
[5] = Concentration of compound required for reduction of the fluorescence of ethidium bromide; assay type: functional

Ki [1] [M⁻¹] | Ki [3] [M⁻¹] | SMILES | Tm [2] [°C] | Tm [4] [°C] | C50 [5] [µM]
2200 |  | CNc1ccc2ccccc2c1 |  |  | 
800000 | 100000 | CN(C)Cc1cccc2ccc(-c3ccc4cccc(CN(C)C)c4c3)cc12 | 81.2 | 75 | 7.2

SMILES | Ki [1] [M⁻¹] | Ki [3] [M⁻¹] | Tm [2] [°C] | Tm [4] [°C] | C50 [5] [µM]
CC[n+]1c(-c2ccccc2)c2cc(N)ccc2c2ccc(N)cc21.[Br-] [HOMIDIUM BROMIDE] | 360000 |  |  |  | 
